Measured values published in patent publication US12459921B2, “Isoindoline compound, preparation method, pharmaceutical composition and use thereof” (SHANGHAI INSTITUTE OF MATERIA MEDICA, CHINESE ACADEMY OF …, priority 2018, dated 2025).

These compounds were tested on MM.1S cells (assay: Inhibitory effect on the proliferation of MM.1S, MTS cell viability test). Details: Homo sapiens, MM1.S, 168 h, multiple myeloma MM.1S cells, 7 days incubation, read-out: Tumor cell inhibitory activity.
Type: cell-based
Outline: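 Viability measured by MTS (OD490 minus OD690 background, 3-4 h) after a 7-day exposure of 20,000 MM.1S cells/well to 5-fold serially diluted compound, 0.2% DMSO final. Inhibition calculated relative to DMSO wells; IC50 curve-fitted, averaged over three repeats.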

| SMILES | IC50 |
| --- | --- |
| CC(=O)N[C@@H](CCCc1cccc2c1CN(C1CCC(=O)NC1=O)C2=O)C(=O)NC(C)(C)C (stereo partly drawn) [Example 168, (2S)-2-acetylamino-N-tert-butyl-(2-(2,6-dioxopiperidine-3-)-1-oxoisoindoline-4-)pentanamide] | 1000 to 20000 nM |
| CC(=O)N[C@@H](CCCc1cccc2c1CN(C1CCC(=O)NC1=O)C2=O)C(=O)N[C@H](C)c1ccccc1 (stereo partly drawn) [Example 169, (2S)-2-acetylamino-5-(2-(2,6-dioxopiperidine-3-)-1-oxoisoindoline-4-)-N—((R)-1-phenethyl)pentanoamide] | < 100 nM |
| N[C@@H](CCCc1cccc2c1CN(C1CCC(=O)NC1=O)C2=O)C(=O)Nc1ccccc1-c1ccccn1 (stereo partly drawn) [Example 170, (2S)-2-amino-5-(2-(2,6-dioxopiperidine-3-)-1-oxoisoindoline-4-)-N-(2-(pyridine-2-)phenyl)pentanamide] | > 20000 nM |
| CC(=O)N[C@@H](CCCc1cccc2c1CN(C1CCC(=O)NC1=O)C2=O)C(=O)N[C@@H](C)c1ccccc1 (stereo partly drawn) [Example 171, (2S)-2-acetylamino-5-(2-(2,6-dioxopiperidine-3-)-1-oxoisoindoline-4-)-N—((S)-1-phenethyl)pentanamide] | 1000 to 20000 nM |
| N[C@@H](CCCc1cccc2c1CN(C1CCC(=O)NC1=O)C2=O)C(=O)Nc1ccccc1-c1cccnc1 (stereo partly drawn) [Example 172, (2S)-2-amino-5-(2-(2,6-dioxopiperidine-3-)-1-oxoisoindoline-4-)-N-(2-(pyridine-3-)phenyl)pentaneamide] | > 20000 nM |
| N[C@@H](CCCc1cccc2c1CN(C1CCC(=O)NC1=O)C2=O)C(=O)NC12CC3CC(CC(C3)C1)C2 (stereo partly drawn) [Example 174, (2S)—N-((3R,5R,7R)-adamantane-1-)-2-amino-5-(2-(2,6-dioxopiperidine-3-)-1-oxoisoindoline-4-)pentanamide] | > 20000 nM |
| CC(=O)N[C@@H](CCCc1cccc2c1CN(C1CCC(=O)NC1=O)C2=O)C(=O)N[C@H]1CCc2ccccc21 (some centres unmarked) [Example 175] | 100 to 1000 nM |
| N[C@@H](CCCc1cccc2c1CN(C1CCC(=O)NC1=O)C2=O)C(=O)NC1C2CC3CC(C2)CC1C3 (stereo partly drawn) [Example 176, (2S)—N-((1S,3S,5S,7 S)-adamantane-2-)-2-amino-5-(2-(2,6-dioxopiperidine-3-)-1-oxoisoindoline-4-)pentanamide] | > 20000 nM |
| CC(=O)N[C@@H](CCCc1cccc2c1CN(C1CCC(=O)NC1=O)C2=O)C(=O)N[C@@H]1CCc2ccccc21 (stereo partly drawn) [Example 177, (2S)-2-acetylamino-N—((R)-2,3-dihydro-1H-indene-1-)-5-(2-(2,6-dioxopiperidine-3-)-1-oxoisoindoline-4-)pentanamide] | 100 to 1000 nM |
| CC(=O)N[C@@H](CCCc1cccc2c1CN(C1CCC(=O)NC1=O)C2=O)C(=O)NCc1ccc(F)cc1F (stereo partly drawn) [Example 178, (2S)-2-acetylamino-N-(2,4-difluorobenzyl)-5-(2-(2,6-dioxopiperidine-3-)-1-oxoisoindoline-4-)oxoisoindoline] | 100 to 1000 nM |
| CC(=O)N[C@@H](CCCc1cccc2c1CN(C1CCC(=O)NC1=O)C2=O)C(=O)N[C@H]1CCCc2ccccc21 (stereo partly drawn) [Example 179, (2S)-2-acetylamino-5-(2-(2,6-dioxopiperidine-3-)-1-oxoisoindoline-4-)-N—((S)-1,2,3,4-tetrahydronaphthyl-1-)pentanamide] | < 100 nM |
| COc1ccc(CNC(=O)[C@H](CCCc2cccc3c2CN(C2CCC(=O)NC2=O)C3=O)NC(C)=O)c(OC)c1 (stereo partly drawn) [Example 180, (2S)-2-acetylamino-N-(2,4-dimethoxybenzyl)-5-(2-(2,6-dipiperidine-3-)-1-oxoisoindoline-4-)pentanamide] | 100 to 1000 nM |
| CC(=O)N[C@@H](CCCc1cccc2c1CN(C1CCC(=O)NC1=O)C2=O)C(=O)NC(c1ccccc1)c1ccccc1 (stereo partly drawn) [Example 181, (2S)-2-acetylamino-N-benzhydryl-5-(2-(2,6-dioxopiperidine-3-)-1-oxoisoindoline-4-) pentanamide] | 100 to 1000 nM |
| Cc1ccc(NC(=O)[C@H](CCCc2cccc3c2CN(C2CCC(=O)NC2=O)C3=O)NC(=O)C(C)C)cc1Cl (stereo partly drawn) [Example 183, (2S)—N-(3-chloro-4-methylphenyl)-5-(2-(2,6-dioxopiperidine-3-)-1-oxoisoindoline-4-)-2-isobutyrylaminopentanamide] | < 100 nM |
| CC(=O)N[C@@H](CCCc1cccc2c1CN(C1CCC(=O)NC1=O)C2=O)C(=O)NCc1cccc(Cl)c1 (stereo partly drawn) [Example 184, (2S)-2-acetylamino-N-(3-chlorobenzyl)-5-(2-(2,6-dioxopiperidine-3-)-1-oxoisoindoline-4-)pentanamide] | 100 to 1000 nM |
| Cc1ccc(NC(=O)[C@H](CCCc2cccc3c2CN(C2CCC(=O)NC2=O)C3=O)NC(=O)C2CC2)cc1Cl (stereo partly drawn) [Example 185, N-((2S)-1-((3-chloro-4-methylphenyl)amino)-5-(2-(2,6-dioxopiperidine-3-)-1-oxoisoindoline-4-)-1-oxopentyl-2-)cyclopropylformamide] | < 100 nM |

| SMILES | IC50 |
| --- | --- |
| CC(=O)N[C@@H](CCCc1cccc2c1CN(C1CCC(=O)NC1=O)C2=O)C(=O)NCc1ccc(N2CCCC2)cc1 (stereo partly drawn) [Example 186, (2S)-2-acetylamino-5-(2-(2,6-dioxopiperidine-3-)-1-oxoisoindoline-4-)-N-(4-(pyrrolidine-1-)benzyl)pentanamide] | 100 to 1000 nM |
| Cc1ccc(NC(=O)[C@H](CCCc2cccc3c2CN(C2CCC(=O)NC2=O)C3=O)NC(=O)C2CCC2)cc1Cl (stereo partly drawn) [Example 187, N-((2S)-1-((3-chloro-4-methylphenyl)amino)-5-(2-(2,6-dioxopiperidine-3-)-1-oxoisoindoline-4-)-1-oxopentyl-2-)cyclobutylcarboxamide] | < 100 nM |
| CC(=O)N[C@@H](CCCc1cccc2c1CN(C1CCC(=O)NC1=O)C2=O)C(=O)NC(C)(C)c1ccccc1 (stereo partly drawn) [Example 188, (2S)-2-acetylamino-5-(2-(2,6-dioxopiperidine-3-)-1-oxoisoindoline-4-)-N-(2-phenylpropyl-2-)pentanamide] | 100 to 1000 nM |
| Cc1ccc(NC(=O)[C@H](CCCc2cccc3c2CN(C2CCC(=O)NC2=O)C3=O)NC(=O)CCCCCN)cc1Cl (stereo partly drawn) [Example 189, 6-amino-N-((2S)-1-((3-chloro-4-methylphenyl)amino)-5-(2-(2,6-dioxopiperidine-3-)-1-oxoisoindoline-4-)-1-oxopentyl-2-)hexanamide] | 100 to 1000 nM |
| CC(=O)N[C@@H](CCCc1cccc2c1CN(C1CCC(=O)NC1=O)C2=O)C(=O)NCc1ccc(OCCN(C)C)cc1 (some centres unmarked) [Example 190] | 1000 to 20000 nM |
| Cc1ccc(NC(=O)[C@H](CCCc2cccc3c2CN(C2CCC(=O)NC2=O)C3=O)NC(=O)C2CCNCC2)cc1Cl (stereo partly drawn) [Example 191, N-((2S)-1-((3-chloro-4-methylphenyl)amino)-5-(2-(2,6-dioxopiperidine-3-) -1-oxoisoindoline-4-)-1-oxopentyl-2-)piperidine-4-carboxamide] | 100 to 1000 nM |
| CC(=O)N[C@@H](CCCc1cccc2c1CN(C1CCC(=O)NC1=O)C2=O)C(=O)NCc1ccc(Oc2ccccc2)cc1 (stereo partly drawn) [Example 192, (2S)-2-acetylamino-5-(2-(2,6-dioxopiperidine-3-)-1-oxoisoindoline-4-)-N-(4-phenoxybenzyl)pentanamide] | 100 to 1000 nM |
| Cc1ccc(NC(=O)[C@H](CCCc2cccc3c2CN(C2CCC(=O)NC2=O)C3=O)NC(=O)CCCCCO)cc1Cl (stereo partly drawn) [Example 193, N-((2S)-1-(3-chloro-4-methylaniline)-5-(2-(2,6-dioxopiperidine-3-)-1-oxoisoindoline-4-)-1-oxopentyl-2-)-6-hydroxyhexanamide] | < 100 nM |
| CC(=O)N[C@@H](CCCc1cccc2c1CN(C1CCC(=O)NC1=O)C2=O)C(=O)Nc1ccccc1-c1ccccn1 (stereo partly drawn) [Example 194, (2S)-2-acetylamino-5-(2-(2,6-dioxopiperidine-3-)-1-oxoisoindoline-4-)-N-(2-(pyridine-2-)phenyl)pentanamide] | 100 to 1000 nM |
| CC(=O)N[C@@H](CCCc1cccc2c1CN(C1CCC(=O)NC1=O)C2=O)C(=O)Nc1ccccc1-c1cccnc1 (stereo partly drawn) [Example 196, (2S)-2-acetylamino-5-(2-(2,6-dioxopiperidine-3-)-1-oxoisoindoline-4-)-N-(2-(pyridine-3-)phenyl)pentanamide] | 1000 to 20000 nM |
| CC(=O)N[C@@H](CCCc1cccc2c1CN(C1CCC(=O)NC1=O)C2=O)c1nc2cccc(Br)c2[nH]1 (stereo partly drawn) [Example 197, N-((1S)-1-(7-bromo-1H-benzo[d]imidazole-2-)-4-(2-(2,6-dioxopiperidine-3-)-1-oxoisoindoline-4-)butyl)acetamide] | 100 to 1000 nM |
| CC(=O)N[C@@H](CCCc1cccc2c1CN(C1CCC(=O)NC1=O)C2=O)C(=O)NC12CC3CC(CC(C3)C1)C2 (stereo partly drawn) [Example 198, (2S)-2-acetylamino-N-((3R,5R,7R)-adamantane-1-)-5-(2-(2,6-dioxopiperidine-3-)-1-oxoisoindoline-4-)pentanamide] | < 100 nM |
| N[C@@H](CCCc1cccc2c1CN(C1CCC(=O)NC1=O)C2=O)c1nc2ccccc2[nH]1 (stereo partly drawn) [Example 199, 3-(4-((S)-4-amino-4-(1H-benzo(d)imidazole-2-)butyl)-1-oxoisoindoline-2-)piperidine-2,6-dione] | > 20000 nM |
| CC(=O)N[C@@H](CCCc1cccc2c1CN(C1CCC(=O)NC1=O)C2=O)C(=O)NC1C2CC3CC(C2)CC1C3 (stereo partly drawn) [Example 200, (2S)-2-acetylamino-N-((1S,3S,5S,7 S)-adamantane-2-)-5-(2-(2,6-dioxopiperidine-3-)-1-oxoisoindoline-4-)pentanamide] | 100 to 1000 nM |
| N[C@@H](CCCc1cccc2c1CN(C1CCC(=O)NC1=O)C2=O)c1nc2ccncc2[nH]1 (stereo partly drawn) [Example 201, 3-(4-((S)-4-amino-4-(3H-imidazole[4,5-c]pyridine-2-)butyl)-1-oxoindoline-2-)piperidine-2,6-dione] | > 20000 nM |
| CC(=O)N[C@@H](CCCc1cccc2c1CN(C1CCC(=O)NC1=O)C2=O)C(=O)Nc1ccc(C)c(Cl)c1 (stereo partly drawn) [Example 202, (2S)-2-acetylamino-N-(3-chloro-4-methylphenyl)-5-(2-(2,6-dioxopiperidine-3-)-1-oxoisoindoline-4-)pentanamide] | < 100 nM |
